Data as given in patent US9526915B2, “Methods for regulating cell mitosis by inhibiting serine/threonine phosphatase” (priority 2008, dated 2016).
Entries after “also recorded” stand apart in the source; their conditions may differ.

Legend:
U87MG cells [1] = test: Cellular and molecular changes in U87MG cells (Western blots, IFS); type: cell-based, human
Method: D, Western blots of U87 lysates: TCTP, pPlk (Tre-210), total Plk, and β-actin. E, IFS of TCTP in U87 cells, F, Western blots p53 (ser-15), pMDM2 (ser-166), and β-actin and G, IFS of p53 (ser-15).
(§1) 5×10^6 U87MG cells were inoculated s.c. into each flank of 20 SCID mice. When the xenografts were 0.5+/−0.1 cm (day 0), 5 animals each received i.p. vehicle alone days 1-12 (50% DMSO/H20); compound 102 alone at 1.5 mg/kg days 1-3, 5-7, & 9-11; TMZ alone at 80 mg/kg days 4, 8, 12; or both drugs at the same doses and schedules. If xenografts reached 1800 mm^3, animals were sacrificed. […] B, Survival curve combining the data from the study shown in FIG. 12A, with a second identical study involving a total of 10 animals with two xenografts each. Disease-free survival was defined as no recurrence of either xenografts. […] As in 12A, except that xenografts of SH-SY5Y cells were implanted in one flank only and animals were treated with one additional cycle of drugs, i.e., compound 102 on days 13-15, TMZ, on day 16, and compound 102 plus TMZ on the same schedules. […] E, Western blots of U87 cells in culture 24 hours after exposure to compound 102 at 2.5 uM, TMZ at 25 uM or DOX at 2 uM, and compound 102 plus TMZ or DOX. F, Western blots of U373 cells 24 hours after exposure to compound 102 at 2.5 uM, doxorubicin at 2 uM, and both drugs. G, Western blots of U373 cells 24 hours after exposure to TMZ at 25 uM, okadaic acid at 2 nM, and both drugs.
TCTP is an abundant, highly conserved, multifunctional protein that binds to and stabilizes microtubules before and after mitosis and also exerts potent anti-apoptotic activity (Bommer and Thiele, 2004; Yarm, 2002; Susini et al, 2008) (FIG. 11E).
[…] Akt-1 activation, however, may be anti- or proapoptotic depending on the context of cell signaling (Andrabi et al, 2007).
The effects of compound 102, TMZ, doxorubicin (DOX), a widely used anti-cancer drug that disrupts DNA replication, compound 102 plus TMZ, and compound 102 plus DOX on the amount of pAkt, p53 and MDM2 in U87MG, a cell line with wild-type p53, and in U373, a cell line with mutant p53 (Short et al, 2007) were assessed by Western blots.

U87MG xenografts = test: U87MG s.c. xenografts in SCID mice, compound 102 and TMZ; type: in vivo
Method: as §1
To determine the impact of altering DNA-damage defense mechanisms by inhibiting PP2A on the efficacy of cytotoxic chemotherapy, the effects of compound 102 combined with TMZ, a non-specific DNA-methylating drug, routinely used for the palliative treatment of GBM patients (Prados et al, 2008), were studied. SCID mice bearing s.c. xenografts of either the GBM line U87MG or the neuroblastoma line SH-SY5Y were treated with vehicle alone, compound 102 alone, TMZ alone, or both drugs at the same doses and schedules as when given alone.

U87MG cells [2] = test: Cell cycle distribution of U87MG cells by FACS; type: cell-based, human; details: 48 hours
Method: Cells in unsynchronized logarithmic growth were exposed to vehicle or drug and adherent cells and cells in the media were collected. Harvested cells were fixed with 70% cold ethanol for 20 min at −20 degrees, washed with PBS, and stained with 10 ug/ml of PI and 1 ug/ml RNAse in TBS for 30 minutes and analyzed by FACS. A, Flow cytometry profiles of U87 cells after exposures to DMSO only, compound 102 only, 5 uM; TMZ only, 25 uM; compound 102 with TMZ combination, doxorubicin only, 2.0 uM and compound 102 with doxorubicin combination. B, Flow cytometry profiles of U373 cells. Exposures as in A, and C, Schema of proposed mechanisms of compound 102 enhancement of cancer chemotherapy.
We analyzed cell cycle patterns of U87MG and U373 cells 48 hours after exposure to TMZ or DOX alone and in combination with compound 102.

PP2A = PP2A (Homo sapiens, UniProt P67775); test: PP2A activity in U87 xenografts and normal brain after i.p. injection; type: in vivo, SCID mice; set-up: PP2A activity in U87 s.c. xenografts (blue) and in normal brain tissue (yellow) of SCID mice; from tissue; host or cells: U87 s.c. xenografts and normal brain tissue of SCID mice; details: single dose 1.5 mg/kg i.p.
Method: PP2A activity in U87 s.c. xenografts (blue) and in normal brain tissue (yellow) of SCID mice at different times after i.p. injection of 1.5 mg/kg compound 102 (one mouse per point; each lysate was measured in triplicate: mean and s.d.)
Recent work led to the discovery that treatment with the compound, compound 100, and several homologs inhibit the serine/threonine protein phosphatases PP2A (FIG. 1). Compound 102 inhibits PP2A (IC50=˜0.4 μM) more potently than PP1 (IC50=˜80 μM) (FIG. 2). Associated with their inhibition of PP2A, Compound 100 and homologs inhibit a variety of human cancer cell types growing in cell culture and growing in vivo as xenografts implanted subcutaneously in SCID mice (FIG. 3 and FIG. 4). […] Death of these cancer cells is associated with profound disruption of microtubular structures. Such patterns of disordered microtubules during mitosis have been noted after exposure of cancer cells to spindle toxins include such vincristine, vinblastine, taxol, taxotere, ionizing radiation, and DNA damaging agents including anthracyclines and the platinum based compounds. The morphologic appearance of cells displaying these characteristics has been called the mitotic catastrophe phenotype (Castedo et al 2004).

NB xenografts = test: Histologic examination of xenografts 24 hours after single i.p. injection; type: in vivo, SCID mice; details: compound 102 1.5 mg/kg, TMZ 80 mg/kg
U373 cells = test: Western blots of U373 cells; type: cell-based, human; details: U373 (mutant p53), 24 hours
Method: as §1

[3] = U87MG, 24 hours, compound 102 2.5 uM, TMZ 25 uM, DOX 2 uM

PP2A, sequence (P67775 whole entry): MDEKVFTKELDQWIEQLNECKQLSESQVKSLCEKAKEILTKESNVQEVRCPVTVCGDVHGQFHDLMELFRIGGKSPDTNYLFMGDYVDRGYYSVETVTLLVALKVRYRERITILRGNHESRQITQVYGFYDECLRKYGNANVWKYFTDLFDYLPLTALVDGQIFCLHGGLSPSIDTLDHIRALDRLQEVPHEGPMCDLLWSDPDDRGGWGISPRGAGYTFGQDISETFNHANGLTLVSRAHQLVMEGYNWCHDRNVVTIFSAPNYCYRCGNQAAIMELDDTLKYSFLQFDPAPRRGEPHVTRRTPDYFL

## CC(C)(C)OC(=O)N1CCN(C(=O)C2C(C(=O)O)[C@H]3CC[C@@H]2O3)CC1 (some centres unmarked) [Compound 102]
U87MG cells [1]; 24 hour, compound 102 2.5 uM, TMZ 25 uM
  intracellular levels of p53 by immunofluorescence staining: reduction
U87MG cells [1]; U87MG, 2.5 uM, 24 hour
  TCTP: marked decrease
  microtubule and mitotic morphology: disordered microtubules and abnormal mitotic figures
  pPlk-1: increased
  phosphorylated MDM2: increased
U87MG cells [1]; [3]
  MDM2: increased
  p53: decreased; also recorded: eliminated
  pAkt-1: increased
U87MG xenografts; compound 102 1.5 mg/kg i.p. days 1-3, 5-7, 9-11, TMZ 80 mg/kg days 4, 8, 12
  U87MG xenograft growth/regression: minimally delayed growth; also recorded: slowed growth
U87MG xenografts; same doses and schedules
  time of sacrifice (xenografts reached 1800 mm^3): 4-5 week
U87MG cells [2]; compound 102 5 uM, TMZ 25 uM, doxorubicin 2.0 uM
  G1 phase cells: decreased
U87MG cells [2]; same concentrations
  G2/M phase cells: prominently increased
  S phase cells: modestly increased
PP2A
  PP2A activity in normal brain tissue: inhibits PP2A activity
  PP2A activity in s.c. U87 MG xenografts: inhibits PP2A activity
NB xenografts
  cells with pyknotic nuclei: 50 % of cells
U373 cells
  molecular changes in pAkt-1, p53, and MDM2 compared with U87MG: same molecular changes
